Data on 23 compounds can be found in patent US20240400553A1, “AMINE BASED MATRIPTASE 2 INHIBITORS AND USES THEREOF” (Disc Medicine, Inc., priority 2023, published 2024).

Some results are limits rather than exact numbers.

One assay concerns the target T1, Human Recombinant Matriptase 2 (Homo sapiens, UniProt Q8IU80).
T1 construct: made in house
T1 sequence (Q8IU80 1-811): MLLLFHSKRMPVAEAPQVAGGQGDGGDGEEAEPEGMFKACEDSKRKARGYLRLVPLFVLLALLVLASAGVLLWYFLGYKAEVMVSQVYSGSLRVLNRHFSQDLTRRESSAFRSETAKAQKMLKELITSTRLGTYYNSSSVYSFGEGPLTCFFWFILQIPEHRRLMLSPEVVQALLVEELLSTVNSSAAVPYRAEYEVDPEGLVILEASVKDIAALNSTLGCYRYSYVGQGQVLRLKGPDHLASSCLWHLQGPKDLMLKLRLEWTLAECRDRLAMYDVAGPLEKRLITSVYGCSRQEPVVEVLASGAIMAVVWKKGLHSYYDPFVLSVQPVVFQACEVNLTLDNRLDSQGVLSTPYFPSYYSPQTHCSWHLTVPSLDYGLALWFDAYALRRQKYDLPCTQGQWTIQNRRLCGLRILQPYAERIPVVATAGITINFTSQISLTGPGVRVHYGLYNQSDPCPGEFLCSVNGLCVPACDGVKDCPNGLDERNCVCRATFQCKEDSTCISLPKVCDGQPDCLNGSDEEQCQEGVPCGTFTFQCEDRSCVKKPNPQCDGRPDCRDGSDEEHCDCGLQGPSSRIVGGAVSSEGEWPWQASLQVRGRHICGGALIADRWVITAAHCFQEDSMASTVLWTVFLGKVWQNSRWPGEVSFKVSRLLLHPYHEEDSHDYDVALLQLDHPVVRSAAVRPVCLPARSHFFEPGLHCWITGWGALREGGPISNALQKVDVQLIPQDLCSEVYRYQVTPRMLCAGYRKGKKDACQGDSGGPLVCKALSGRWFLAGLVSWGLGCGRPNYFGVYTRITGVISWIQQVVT
Put plainly: Matriptase 2 inhibition, fluorescence based assay (Method I). Format: biochemical. The note with it: Table A; Ki of Matriptase-2; read-out: Mat-2 Ki. As for the experimental part: • Method I: Test compounds were evaluated for their potential to inhibit Human Recombinant Matriptase 2 (in-house) using fluorescence based assay. The concentration of Recombinant Matriptase 2 and the substrate used in the assay was: 3.5 nM (In-house Matriptase 2) and 62 μM (Boc-Gln-Ala-Arg-7-amido-4-methyl coumarin hydrobromide −Cat log: I-1550 from Bachem) respectively. The assay buffer used was 50 mM TRIS pH 7.5, 150 mM NaCl, 0.01% Gelatin TCL059 Himedia). The assay was performed using 384 well black flat bottom plate from grenier (Cat log: 781076) at 25° C. The enzyme and compound were preincubated for 30 mins, the plate was read at 60 mins after substrate addition at wavelength Ex: 360/Em: 480 nm. The final assay volume was 20 μl. A stock solution of compounds was initially prepared in DMSO and appropriate dilutions were made and IC50 was determined for all the compounds (final DMSO conc in the assay was 1%). All the measurements were carried out using the Spectramax M5, Molecular devices.
To determine Ki values, dose response curves were generated by plotting percentage inhibition as a function of inhibitor concentration and the data was fitted to sigmoidal non-linear regression equation (variable slope) using Graph Pad prism software V8.
For the compound `CN1CCC(COC(=O)c2cc3ccc(CN)nc3n2Cc2cc(NS(=O)(=O)Cc3ccsc3)cc3ccccc23)CC1` [Compound 5], the inhibition constant (Ki) is no more than 100 nM. The same measure, in the same setting: with `NCc1ccc2cc(C(=O)OCCCN3CCOCC3)n(Cc3cc(NS(=O)(=O)Cc4ccccc4)cc4ccccc34)c2n1` [Compound 133, 3-(morpholin-4-yl)prop-yl 6-(aminomethyl)-1-{[3-(phenylmethanesul-fonamido)naphthalen-1-ylmethyl}-1H-pyrrolo-[2,3-b]pyridine-2-car-boxylate] the figure was 100 to 500 nM. Same read-out and setting: for `CN(C)CCCCOC(=O)c1cc2ccc(CN)nc2n1Cc1cc(NS(=O)(=O)Cc2ccccc2)cc2ccccc12` [Compound 25, 4-(dimethylamino)butyl 6-(aminomethyl)-1-{[3-(phenylmethanesulfon-amido)naphthalen-1-yl]-methyl}-1H-pyrrolo[2,3-b]pyridine-2-carboxylate] the value was no more than 100 nM; for `CN(C)CCCCCOC(=O)c1cc2ccc(CN)nc2n1Cc1cc(NS(=O)(=O)Cc2ccccc2)cc2ccccc12` [Compound 34, 5-(dimethylamino)pentyl 6-(aminomethyl)-1-{[3-(phenylmethanesulfon-amido)naphthalen-1-yl]-methyl}-1H-pyrrolo[2,3-b]pyridine-2-carboxylate], no more than 100 nM.

On to `CC(C)(C)n1cncc1COC(=O)c1cc2ccc(CN)nc2n1Cc1cc(NS(=O)(=O)Cc2ccccc2)cc2ccccc12` [Compound 29, (1-tert-butyl-1H-imid-azol-5-yl)methyl 6-(aminomethyl)-1-{[3-(phenylmethanesulfon-amido)naphthalen-1-yl]-methyl}-1H-pyrrolo[2,3-b]pyridine-2-carboxylate], for which the inhibition constant Ki is no more than 100 nM. Still for that read-out and setting: for `Cc1cccc(C)c1CS(=O)(=O)Nc1cc(Cn2c(C(=O)OCc3cncn3C)cc3ccc(CN)nc32)c2ccccc2c1` [Compound 187, (1-methyl-1H-imidazol-5-yl)methyl 6-(amino-methyl)-1-({3-[(2,6-dimethylphenyl)methane-sulfonamido]naphthalen-1-yl}methyl)-1H-pyr-rolo[2,3-b]pyridine-2-carboxylate] the value was no more than 100 nM. Same read-out and setting: with `NCc1ccc2cc(C(=O)OCCC3CCOCC3)n(Cc3cc(NS(=O)(=O)Cc4ccccc4)cc4ccccc34)c2n1` [Compound 102, 2-(oxan-4-yl)ethyl 6-(aminomethyl)-1-{[3-(phenylmethanesulfon-amido)naphthalen-1-yl]-methyl}-1H-pyrrolo[2,3-b]pyridine-2-carboxylate] the figure was 100 to 500 nM; with `CN1CCC(COC(=O)c2cc3ccc(CN)nc3n2Cc2cc(NS(=O)(=O)Cc3ccc(F)s3)cc3ccccc23)CC1` [Compound 149, (1-methylpiperidin-4-yl)methyl 6-(amino-methyl)-1-({3-[(5-fluoro-thiophen-2-yl)methane-sulfonamido]naphthalen-1-yl}methyl)-1H-pyr-rolo[2,3-b]pyridine-2-carboxylate], no more than 100 nM; with `CN1CCN[C@@H](COC(=O)c2cc3ccc(CN)nc3n2Cc2cc(NS(=O)(=O)Cc3ccccc3)cc3ccccc23)C1` (racemic) [Compound 41, (4-methylpiperazin-2-yl)methyl 6-(aminometh-yl)-1-{[3-(phenylmeth-ane-sulfonamido)naph-thalen-1-yl]methyl}-1H-pyrrolo[2,3-b]pyridine-2-carboxylate], no more than 100 nM. Still for that read-out and setting: for `COCCN1CC[C@H](COC(=O)c2cc3ccc(CN)nc3n2Cc2cc(NS(=O)(=O)Cc3ccccc3)cc3ccccc23)C1` (racemic) [Compound 138, rac-[(3R)-1-(2-methoxy-ethyl)pyrrolidin-3-yl]-methyl 6-(aminometh-yl)-1-{[3-(phenylmeth-anesulfonamido)naph-thalen-1-yl]methyl}-1H-pyrrolo[2,3-b]pyridine-2-carboxylate] the value was no more than 100 nM; for `Cc1cccc(C)c1CS(=O)(=O)Nc1cc(Cn2c(C(=O)NCCC3CCN(C)CC3)cc3ccc(CN)nc32)c2ccccc2c1` [Compound 183, 6-(aminomethyl)-1-({3-[(2,6-dimethylphenyl)-methanesulfonamido]-naphthalen-1-yl}meth-yl)-N-[2-(1-methylpiper-idin-4-yl)ethyl]-1H-pyr-rolo[2,3-b]pyridine-2-carboxamide], no more than 100 nM.

The assay is the same for the next values; noted with them: Table A; Ki of Matriptase-2 given as class symbols; read-out: Mat-2 Ki.
Turning to `CCOC(=O)c1cc2ccc(CN)nc2n1Cc1cc(NS(=O)(=O)Cc2c(C)cccc2C)cc2ccccc12` [Compound 202, ethyl 6-(aminomethyl)-1-({3-[(2,6-dimethyl-phenyl)methanesulfon-amido]naphthalen-1-yl}-methyl)-1H-pyrrolo[2,3-b]pyridine-2-carboxylate], the Ki is 500 to 3000 nM. Still for that read-out and setting: with `C[C@@H](CN1CCCCC1)OC(=O)Nc1cc(Cn2c(C(=O)O)cc3ccc(CN)nc32)c2ccccc2c1` (racemic) [Compound 339, rac-6-(aminomethyl)-1-({3-[({[(2R)-1-(piperidin-1-yl)propan-2-yl]oxy}-carbonyl)amino]naph-thalen-1-yl}methyl)-1H-pyrrolo[2,3-b]pyridine-2-carboxylic acid] the figure was 500 to 3000 nM; with `NCc1ccc2cc(C(=O)O)n(Cc3cc(NS(=O)(=O)Cc4ccccc4)cc4cccc(O)c34)c2n1` [Compound 360, 6-(aminomethyl)-1-((8-hydroxy-3-((phenylmethyl)sulfonamido)naphthalen-1-yl)methyl)-1H-pyrrolo[2,3-b]pyridine-2-carboxylic acid], 100 to 500 nM; with `NCc1ccc2cc(C(=O)O)n(Cc3cc(NC(=O)N4CC5CCCC5C4)cc4ccccc34)c2n1` (centres unmarked) [Compound 297, 6-(aminomethyl)-1-{[3-({octahydrocyclopenta-[c]pyrrole-2-carbonyl}-amino)naphthalen-1-yl]-methyl}-1H-pyrrolo[2,3-b]pyridine-2-carboxylic acid], 500 to 3000 nM. On the same count and under the same terms, with `CS(=O)(=O)N1CCC(CNC(=O)Nc2cc(Cn3c(C(=O)O)cc4ccc(CN)cc43)c3ccccc3c2)CC1` [Compound 397, 6-(aminomethyl)-1-{[3-({[(1-methanesulfonyl-piperidin-4-yl)methyl]-carbamoyl}amino)naph-thalen-1-yl]methyl}-1H-indole-2-carboxylic acid] the figure was 100 to 500 nM; with `CNCCOC(=O)c1cc2ccc(CN)nc2n1Cc1cc(NS(=O)(=O)CC[C@@H]2CCCN2)cc2ccccc12` [Compound 283, 2-(methylamino)ethyl 6-(aminomethyl)-1-[(3-{2-[(2S)-pyrrolidin-2-yl]-ethanesulfonamido}-naphthalen-1-yl)methyl]-1H-pyrrolo[2,3-b]pyr-idine-2-carboxylate], 500 to 3000 nM. On the same count and under the same terms, with `NCc1ccc2cc(C(=O)O)n(Cc3cc(NS(=O)(=O)C4CCCCC4)cc4ccccc34)c2n1` [Compound 279, 6-(aminomethyl)-1-[(3-cyclohexanesulfon-amidonaphthalen-1-yl)-methyl]-1H-pyrrolo[2,3-b]pyridine-2-carboxylic acid] the figure was 500 to 3000 nM; with `NCc1ccc2cc(C(=O)O)n(Cc3cc(NS(=O)(=O)Cc4c(Cl)cccc4Cl)cc4ccccc34)c2n1` [Compound 251, 6-(aminomethyl)-1-({3-[(2,6-dichlorophenyl)-methanesulfonamido]-naphthalen-1-yl}methyl)-1H-pyrrolo[2,3-b]pyr-idine-2-carboxylic acid], 500 to 3000 nM. On to `CN1CCC[C@H]1CCS(=O)(=O)Nc1cc(Cn2c(C(=O)O)cc3ccc(CN)nc32)c2ccccc2c1` [Compound 235, 6-(aminomethyl)-1-[(3-{2-[(2S)-1-methylpyr-rolidin-2-yl]ethanesul-fonamido}naphthalen-1-yl)methyl]-1H-pyrrolo-[2,3-b]pyridine-2-car-boxylic acid], for which the Ki was in the range of 100 to 500 nM.

The assay is the same for the next values; noted with them: Table B; Human Recombinant Matriptase 2, 3.5 nM enzyme, 62 μM substrate, 30 mins preincubation; read-out: Mean Ki.
Take `Cc1cccc(C)c1CS(=O)(=O)Nc1cc2c(c(Cn3c(C(=O)OCC4CCN(C)CC4)cc4ccc(CN)nc43)c1)CCCC2` [Compound 2.43]: the Ki was no more than 100 nM. Still for that read-out and setting: with `CN(C)c1ccc(NC(=O)c2cc3ccc(CN)nc3n2Cc2cc(NS(=O)(=O)Cc3ccccc3)cc3ccccc23)cc1` [Compound 2.36] the figure was 100 to 500 nM; with `NCc1ccc2cc(C(=O)OCC3CCNC(=O)C3)n(Cc3cc(NS(=O)(=O)Cc4ccsc4)cc4c3CCCC4)c2n1` (centres unmarked) [Compound 2.11], no more than 100 nM.

By Ki is commonly meant the equilibrium dissociation constant of an inhibitor or competing ligand from its target.
